The values that follow come from patent US12285498B2, “Pharmaceutical composition with nanoparticle-based drug delivery combined with non-invasive radiographic monitoring model” (NANOMEDTRIX, LLC, priority 2023, dated 2025).

Like-named read-outs stand apart in the source and are kept apart here. Where only a bound is given, the exact number is not on record here.

A short description of series [1]: PK, intravenous administration of drug alone (current study). Type of series: in vivo, rat. The settings on record: for Cmax: 3 mg/kg DOC, 12 mg/kg GEM, 6 mg/kg MMC; for AUC: read-out: AUC (Plasma Curves). As to the method:
Adult female rats are 250-300 g in body weight, or 10-15 times larger than adult C57-BI6 mice. The volume of an aqueous solution given by oral gavage procedure can be up to 5 mL/kg, thus for a 300 g rat, 1.5 mL volume is achievable (Turner, J Am Assoc Lab Anim Sci. 51(1): 25-30.). This permits a mass of 150 mg MSN, or the equivalent dose of free drug. The recommended volume of a tail vein injection is also 5 mL/kg, thus 150 mg MSN or equivalent drug can be administered by i.v. as well (https://research.unc.edu/files/2020/12/rat-handling-and-techniques.pdf).
We compared the one or 2 drugs to experiment carried out intravenous/systemic and/or intravesicular drug alone.

Series [2] is described as follows: in vivo. An excerpt: Blood, urine, and stools were collected to evaluate renal and gastro-intestinal clearance of nanomaterials. Sequential and simultaneous administration of one material and before the start of another to allow full clearance.
Both strains were obtained from Inotiv (Indianapolis, IN, USA). F344 rats were instilled with rat AY27 bladder cancer cells and athymic nude rats were instilled with human male bladder cancer strains: T24 and UMUC-3. […] In these rats, blood/urine were collected, but spared from PK/PD studies to avoid confounding results. In this cohort, rats (n=3) were instilled with tumors and treated with sequential intravesical and oral drug-MSN 3-drugs load and body fluids (blood/urine) collection at the same prescribed time points. An example: four rounds of treatment were administered fluid collected n=3 samples at each time point.

The conditions of series [3]: intravenous, cited from earlier work.
Series [4] is described as follows: in vivo. The text has this:
The following discusses oral administration and detection of the drug delivered orally. There is a need for oral drug delivery, i.e., it facilitates self-medication, storage, and reduced burden on the clinician, allowing for remote monitoring.
The source holds these as a separate data set.

The conditions of series [5]: known value; cited from earlier work.
The conditions of series [6]: intravenous, cited from earlier work. The source holds these as a separate data set.
The conditions of series [7]: oral, 50 mg/kg; cited from earlier work.
For series [8] the following is noted: rat, in vivo.
For series [9] the following is noted: intravenous, cited from earlier work. The source holds these as a separate data set.
Series [10] can be described thus: Comparison of AUC for drug-MSN versus drug administered alone (FIG. 7). The conditions noted are these: rat, in vivo.
[11] abbreviates: female, rat, plasma, read-out: Cmax.
Where [12] appears, read: female, rat, in vivo, Cmax in stools.
The mark [13] stands for this setting: female, rat, in vivo, initial concentration (Cmax) in urine.
Setting [14] is: female, rat, in vivo, po, 3 mg/kg.
The mark [15] stands for this setting: female, rat, in vivo, po, Cmax in stool.
[16] abbreviates: female, rat, in vivo, po, Cmax in urine.
Where [17] appears, read: female, rat, in vivo, po, 12 mg/kg.

Regarding `CC(=O)O[C@@]12CO[C@@H]1C[C@H](O)[C@@]1(C)C(=O)[C@H](O)C3=C(C)[C@@H](OC(=O)[C@H](O)[C@@H](NC(=O)OC(C)(C)C)c4ccccc4)C[C@@](O)([C@@H](OC(=O)c4ccccc4)[C@H]21)C3(C)C` [Docetaxel], the Cmax in series [1] (setting [11]) is 116 ng/mL; in “in vivo [2]” (setting [12]), 9.44 ng/mL; in “in vivo [2]” (setting [13]), 16600 ng/mL; in [3] (2 mg/kg), 68 ± 10 ng/mL; in [3] (5 mg/kg) it was 7000 ng/mL; in [3] (8 mg/kg), 950 ng/mL. The Cmax in the series “in vivo [4]” (setting [15]) stood at 352 ng/mL; in “in vivo [4]” (setting [16]), 413 ng/mL. For the same compound, the Clearance is 624 mL/min in [1] (female, rat, plasma, 3 mg/kg) and 45.11 L/h in the series “in vivo [4]” (setting [14]). The AUC in series [1] (female, rat, plasma, 3 mg/kg) was determined as 0.016 µg·h/mL; in the series “in vivo [4]” (setting [14]), 0.0133 µg·h/mL. Further, the tmax in series [1] (female, rat, plasma, 3 mg/kg, read-out: tmax) stood at 15 min; in the series “in vivo [4]” (setting [14]) it was 60 min. The detection in plasma result in the series “in vivo [2]” (rat, in vivo) is given as “below the detection threshold”. In “in vivo [2]” (rat, in vivo), the “time of Cmax in stools” value is 24 h. Also, the “AUC (Plasma Curves)” value in [3] (2 mg/kg) was 0.277 µg·h/mL; in series [3] (5 mg/kg), 16367.39 µg·h/mL; in [3] (8 mg/kg) it was 2.2 ± 0.3 µg·h/mL. For the same compound, the “time of Cmax in stool” value in the series “in vivo [4]” (rat, in vivo, po) was found to be 6 h. For the same compound, the oral bioavailability in [5] is on record as 10%.
`Nc1ccn([C@@H]2O[C@H](CO)[C@@H](O)C2(F)F)c(=O)n1` [Gemcitabine]: the Cmax is 1790 ng/mL in series [1] (setting [11]); 2.23 ng/mL in “in vivo [2]” (setting [12]); 55600 ng/mL in the series “in vivo [2]” (setting [13]); 26.1 ng/mL in the series “in vivo [4]” (setting [15]); 4740 ng/mL in “in vivo [4]” (setting [16]); 1181.17 ± 47.1 ng/mL in series [7]. In addition, the Clearance is 17.4 mL/min in series [1] (female, rat, plasma, 12 mg/kg); 143 mL/min in “in vivo [2]” (female, rat, in vivo, 12 mg/kg); 393.29 L/h/m^2 in [6] (15 mg/kg); 89.46 L/h/m^2 in series [6] (20 mg/kg); 29.56 L/h/m^2 in series [6] (50 mg/kg); 2.109 L/h in the series “in vivo [4]” (setting [17]). The AUC stood at 2.3 µg·h/mL in series [1] (female, rat, plasma, 12 mg/kg); 0.28 µg·h/mL in the series “in vivo [2]” (female, rat, in vivo, 12 mg/kg); 1.14 µg·h/mL in the series “in vivo [4]” (setting [17]). The tmax in series [1] (female, rat, plasma, 12 mg/kg, read-out: tmax) is 15 min; in the series “in vivo [2]” (female, rat, in vivo, 12 mg/kg), 15 min; in series [6] (15-20 mg/kg), 4.98 min; in “in vivo [4]” (setting [17]), 30 min; in series [7], 90 ± 54 min. Moreover, the “plasma Cmax as % of Cmax for urine” value in “in vivo [2]” (female, rat, in vivo) is roughly 1%. The “time of Cmax in plasma” value in “in vivo [2]” (rat, in vivo) was no more than 15 min. Also, in “in vivo [2]” (rat, in vivo), the “time of Cmax in stools” value was determined as 24 h. For the same compound, the “AUC (Plasma Curves)” value in series [6] (15 mg/kg) was 22.69 ± 4.14 µg·h/mL; in series [6] (20 mg/kg), 133 ± 20 µg·h/mL; in [6] (50 mg/kg) it was 5031.61 ± 927.4 µg·h/mL; in [7], 16132.95 ± 5128.0 µg·h/mL. For the same compound, the “time of Cmax in stool” value in the series “in vivo [4]” (rat, in vivo, po) is given as 6 h. Moreover, in [5], the oral bioavailability is reported as 10%. For the same compound, the “AUC, drug alone compared with drug-loaded MSN” value in series [8] is listed as “higher for drug alone”.
With `CO[C@@]12[C@H](COC(N)=O)C3=C(C(=O)C(C)=C(N)C3=O)N1C[C@@H]1N[C@@H]12` [Mitomycin C, Mitomycin c], the Cmax in [9] (4 mg/kg) was 800 ng/mL; in [9] (5 mg/kg), 12800 ± 400 ng/mL; in series [1] (plasma), 39.5 ng/mL; in “in vivo [2]” (drug alone, intravesical, 3 mg/kg DOC, 12 mg/kg GEM, 6 mg/kg MMC, plasma), 32.19 ng/mL. Besides, the tmax in series [9] (4 mg/kg) is 15 min; in series [9] (5 mg/kg) it was 4.98 min; in series [1] it was 15 min; in “in vivo [2]” (drug alone, intravesical, plasma) it was 15 min; in the series “in vivo [4]” (drug alone, oral, plasma), 30 min. In addition, the Cmax in stools in “in vivo [2]” (intravesical administration, stools) amounted to 94.22 ng/mL. Moreover, the “initial concentration (Cmax) in urine” value in the series “in vivo [2]” (intravesical administration, urine, 15 minutes following administration) turned out to be 29498.07 ng/mL. Further, the Cmax in stool in “in vivo [4]” (oral administration, stool) is listed as 157.09 ng/mL. The compound also had a Cmax in urine in the series “in vivo [4]” (oral administration, urine) of 16135.89 ng/mL. Besides, the “AUC, drug alone compared with drug-loaded MSN” value in series [10] is on record as “higher for drug alone”.

The Cmax is the highest concentration seen after dosing. The term AUC denotes the area under the concentration-time curve, a measure of exposure.
